Results reported in patent US9347942B2, “Ultrasensitive cell based sensors and uses thereof” (CANVAX BIOTECH SL, priority 2010, dated 2016).

How the values were obtained:
Assay type in all cases: cell-based
[1] = target: T1, CHRM2 (Homo sapiens, UniProt P08172); experiment: Agonist-induced exocytosis of granzyme B, sandwich ELISA (Example 9); conditions: agonist 10 uM, 60 minutes
T1 construct: the entire human GPCR; mouse immunoglobulin kappa signal peptide (N); expressed in transfected cells
T1 sequence (P08172 2-466): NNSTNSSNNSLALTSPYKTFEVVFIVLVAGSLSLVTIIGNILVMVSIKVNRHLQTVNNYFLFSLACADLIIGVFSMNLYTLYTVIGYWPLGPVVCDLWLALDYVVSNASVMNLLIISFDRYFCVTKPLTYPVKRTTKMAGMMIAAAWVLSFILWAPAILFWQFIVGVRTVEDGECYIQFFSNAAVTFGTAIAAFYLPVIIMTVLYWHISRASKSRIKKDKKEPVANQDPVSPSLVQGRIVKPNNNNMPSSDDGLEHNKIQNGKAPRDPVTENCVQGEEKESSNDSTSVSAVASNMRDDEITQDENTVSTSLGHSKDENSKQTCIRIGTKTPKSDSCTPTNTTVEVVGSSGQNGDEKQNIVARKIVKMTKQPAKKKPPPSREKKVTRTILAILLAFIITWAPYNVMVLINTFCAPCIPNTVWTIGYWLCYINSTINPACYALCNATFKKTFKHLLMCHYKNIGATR
Source text: Human granzyme B was selected as reporter, chimeric promoter of hCMV-MoLV5′LTR as promoter for reporter expression, RBL-2H3 as hemopoyetic cells with professional regulated exocytosis and several GPCRs as exocytosis modulators under the control of Moloney Leukaemia virus 5′-LTR (MoMLV5′LTR, SEQ ID NO:3) as promoter for expression of exocytosis modulators. […] Vectors for expression of granzyme B had the chimeric promoter of hCMV-MoLV5′LTR-GranzymeB-IRES-NGFR with hygromycin resistance for stable transfections. Vectors for GPCR were electroporated first, cells were selected with neomycin at 500 ug/mL for about two weeks and cells were analysed by flow cytometry (Guava Technologies, USA) with anti-cmyc tag antibody (anti-cmyc-FITC, clone 9E10, Sigma-Aldrich, USA) for surface expression. Positive cells were separated by magnetic separation using anti-cmyc monoclonal antibody conjugated to biotin (Miltenyi Biotec, Germany) and streptavidin-MACS (Miltenyi Biotec, Germany). After growing positive fraction of cells was again analysed by flow cytometry with the anti-cmyc tag antibody. Positive cells were individually electroporated with the vector for expression human granzyme B using a microporator (Digital Bio Technology, South Korea) and after 48 hours hygromycin at 1500 ug/mL and neomycin at 500 ug/mL were added to culture for selection. After selection for about 2 weeks cells were analysed by flow cytometry (Guava Technologies, USA) with an antibody against NGFR coupled to FITC. Positive population where magnetically separated by MACS using anti-NGFR-MACS sup.R (Miltenyi Biotec, Germany). Sorted populations were again analysed again by flow cytometry to check both the expression of the GPCR with the anti-cmyc tag antibody and with anti-NGFR antibody to check granzyme B expression. […] GPCRs included were: SSTR2 and CHRM2 as alpha-i coupled GPCRs; AGTR1 and bradykinin type B1 receptor (BDKRB1) as alpha-q coupled GPCRs and AVPR2 as alpha-s coupled GPCR. […] Cells were seeded the night before experiment at 100.000 cells per well of a 96-well microplate in 100 uL of complete cell culture medium. Next day cells were washed with HBSS buffer and incubated with the ligand (agonist) at 10 uM of each GPCR in 30 uL of HBSS buffer at 37 Celsius degrees for 60 minutes and after centrifugation at 400 g for 5 minutes supernatants were analysed for human granzyme B protein by a sandwich ELISA specific for human granzyme B (Ucytech, Netherlands).

[2] = target: T1, CHRM2; experiment: Exocytosis time optimisation, granzyme B FRET readout (Example 12); conditions: agonist 10 uM
Source text: An experiment was designed to optimize assay conditions such as: exocytosis time, number of steps needed for assay and uses of cells in suspension. Cells developed in example #9 expressing both a GPCR and human granzyme B were used in this example for optimization of exocytosis time. GPCRs included were CHRM2 (an alpha-i coupled GPCR) and bradykinin type B1 receptor (an alpha-q coupled GPCR). Carbachol and kallinin from Sigma-Aldrich (USA) were used as ligands for CHRM2 and bradykinin type B1 receptor, respectively and used at 10 uM final concentration in HBSS buffer. Cells were seeded the night before experiment at 20.000 cells per well of a 96-well microplate in 100 uL of complete cell culture medium. Next day cells were washed with HBSS buffer and incubated with the ligand (agonist) at 10 uM of each GPCR in 30 uL of HBSS buffer at 37 Celsius degrees for 5, 15, 30 or 60 minutes and after centrifugation at 400 g for 5 minutes supernatants were analysed for human granzyme B activity using FAM-[…]-TAMRA at 1 uM final concentration as the human granzyme B substrate. Released FAM was measured by excitation at 485 nm and emission at 535 nm in a BMG Labtech microplate fluorimeter in 96 well microplates. Microplates were incubated at 37 Celsius degrees on the reader and were kinetically read at 0, 15, 30, 45 and 60 minutes. Control wells with substrate only in HBSS buffer were included to subtract autofluorescence of substrates to both cells treated with ligands and to cells treated with HBSS buffer only. […] The signal to background is lower at longer exocytosis times due to the higher increase in basal release than the increase in specific signal after the first 5 to 15 minutes. Thus, any exocytosis time from probably less than 5 minutes to at least 60 minutes may be used for the methods of the present invention but longer exocytosis times produce a sensor with a lower signal to background, exocytosis is nearly complete at 5 minutes and signal to background is good for a robust sensor.

[3] = target: T1, CHRM2; experiment: Multiplex assay, Sensor B channel (CHRM2 and granzyme B) (Example 14); conditions: granzyme B substrate 1 uM
Source text: The principle of multiplex reactions is illustrated in FIG. 5. RBL2H3 cells were stably transfected with a pair of a GPCR as exocytosis modulator and a granzyme as a granule stored reporter as described in example 9. Combinations included were: hIL8 receptor (hIL8RA) and human granzyme A (Sensor A) and CHRM2 and granzyme B expressing cells of example #12 (Sensor B). Human IL8 was used as agonist of hll_8R while carbachol was used as CHRM2 agonist. […] As both substrates uses the same pair of fluorophore (FAM) and quencher (TAMRA) only one substrate could be added to reaction vessel for specific detection at 535 nm after excitation at 485 nm. […] Sensors, agonists and substrates were mixed in a total volume of 20 uL of HBSS in a black walled 384 well microplate and the microplate was incubated at 37 Celsius degrees in a BMG-Labtech microplate fluorimeter and read at 0, 15, 30, 45 and 60 minutes.

For `C[N+](C)(C)CCOC(N)=O` [Carbachol, carbachol], which “Absorbance at maximal dilution of ELISA tested” value ([1]; 100.000 cells, dilution 2250, after subtraction of 0.2 blank) is on record?
Its value is 0.6.

And the “Sensitivity (minimal amount of cells needed)” value ([1]; granzyme B ELISA)?
Its value is <150 cells.

What about the “exocytosis, % of maximal” value ([2]; 5 minutes, 20.000 cells) of the same compound?
Its value is > 90%.

And the “signal to background (S/B)” value ([2]; medium taken at 5 to 15 minutes)?
Its value is 20-22.

And the “signal to background (S/B)” value ([2]; medium taken at 30 minutes)?
The value was 15-17.

What about the “signal to background (S/B)” value ([2]; medium taken at 60 minutes) of the same compound?
The value was 8-10.

And the “Signal to background at 30 min” value ([3]; Condition 7: 5000 cells Sensor B, carbachol 10 uM)?
Its value is 20.

And the “Signal to background at 30 min” value ([3]; Condition 10: Sensor A 12500 + Sensor B 5000 cells, IL8 10 uM + carbachol 10 uM)?
Its value is 20.
